The text below walks through data of patent publication US12570606B2, “Myeloperoxidase imaging agents” (The General Hospital Corporation, priority 2016, dated 2026).

For one data set, the target named is T1, purified human MPO (Homo sapiens, UniProt P05164).
T1 construct: purchased Lee Biosolutions, St. Louis, Mo
T1 sequence (P05164 49-745): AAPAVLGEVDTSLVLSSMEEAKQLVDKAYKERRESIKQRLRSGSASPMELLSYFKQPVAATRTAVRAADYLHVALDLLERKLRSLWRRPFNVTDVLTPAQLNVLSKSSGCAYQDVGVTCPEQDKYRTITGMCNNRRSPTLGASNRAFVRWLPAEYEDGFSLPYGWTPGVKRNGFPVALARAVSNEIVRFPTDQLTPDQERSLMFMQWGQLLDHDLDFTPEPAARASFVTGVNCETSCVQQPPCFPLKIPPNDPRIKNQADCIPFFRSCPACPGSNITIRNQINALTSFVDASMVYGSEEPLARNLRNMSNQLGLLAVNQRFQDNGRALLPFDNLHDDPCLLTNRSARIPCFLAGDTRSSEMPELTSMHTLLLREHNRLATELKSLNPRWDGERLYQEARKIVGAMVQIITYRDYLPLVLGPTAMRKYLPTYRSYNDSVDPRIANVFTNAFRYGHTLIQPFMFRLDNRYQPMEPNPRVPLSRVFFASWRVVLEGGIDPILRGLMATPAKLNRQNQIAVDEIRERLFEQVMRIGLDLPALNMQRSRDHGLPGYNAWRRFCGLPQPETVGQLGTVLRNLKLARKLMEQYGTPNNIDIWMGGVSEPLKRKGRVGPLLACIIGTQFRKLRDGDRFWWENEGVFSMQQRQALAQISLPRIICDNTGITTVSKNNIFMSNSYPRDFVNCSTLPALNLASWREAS
The experiment in a line: Fluorescence molecular tomography (FMT) of MPO embedded in matrigel, sensitivity. Type of data set: in vivo, mouse. To be noted: 2 nmol i.v. then SA-647, matrigel in thigh. From the text:
(§1) Four to ten weeks old female C57BL/6J or MPO-knockout mice (from Jackson Laboratories, Bar Harbor, Me.) were used for all animal experiments. Mice were fed biotin free diet for 5 days before imaging with fluorescence molecular tomography (FMT) or fluorescence […] imaging (FRI).
To validate sensitivity of the Compound 3, different concentrations of purified human MPO (Lee Biosolutions, St. Louis, Mo.) and glucose oxidase (GOX, as a H2O2 donor, Affymetrix, Santa Clara, Calif.) were embedded in a mixture of matrigel (BD Bioscience, San Jose, Calif.) and minimal essential medium (MEM, Corning, Corning, N.Y.), and injected 400 μL of this mixture subcutaneously into the ventral aspect of the thigh. After 30 min, 2 nmol of Compound 3 in 100 μL phosphate buffered saline (PBS) was injected intravenously. One hour later, 25 μL of streptavidin AlexaFluor-647 (2 mg/mL, SA-647, Invitrogen, Carlsbad, Calif.) was injected intravenously, and FMT was performed every 15 minutes for a total of 60 minutes. Mice were imaged on a dedicated FMT system (Perkin Elmer, Waltham, Mass.) at 635 nm excitation and 655 nm emission.

For data set [1], the target named is T2, MPO (Homo sapiens, UniProt P05164).
T2 sequence (P05164 49-745): T1 sequence (P05164 49-745)
The experiment in a line: Fluorescence reflectance imaging (FRI) of GOX/MPO/ABAH in matrigel, specificity. It is filed as in vivo, mouse. To be noted: 2 nmol i.v. then SA-647.
Text: as §1

In data set [2] the test system is MPO activity. The experiment in a line: Irritant contact dermatitis (PMA) in vivo FRI. The arrangement: species or system mouse. As for the experimental part: Female C57Bl/6J (wildtype, Jackson laboratories, Bar Harbor, Me.) and MPO-knockout (KO, Jackson laboratories) mice were treated topically with 0.08 μmol Phorbol 12-myristate 13-acetate (PMA, Sigma, St. Louis, Mo.) on one hind-paw and with vehicle on the other to induce irritant contact dermatitis. This model is well described in the literature and triggers rapid inflammation with influx of neutrophils into the skin. 6 hours after induction, mice were injected intravenously with either 2 nmol of Compound 3 or the non-specific analogue, Compound 18. 1 hour later, 2.5 μg SA-647 was injected intravenously to bind to the biotinylated Compound 3. Mice underwent in vivo imaging using a dedicated in vivo FRI system as described above in Example 11.

Data set [3] addresses T3, MPO activity (Mus musculus, UniProt P11247).
T3 construct: from tissue; host or cells: C57Bl/6J mice: PMA-treated hind-paw, salmonella brain abscess (slices and frozen sections), S. pneumoniae cellulitis of the thigh
T3 sequence (P11247 139-718): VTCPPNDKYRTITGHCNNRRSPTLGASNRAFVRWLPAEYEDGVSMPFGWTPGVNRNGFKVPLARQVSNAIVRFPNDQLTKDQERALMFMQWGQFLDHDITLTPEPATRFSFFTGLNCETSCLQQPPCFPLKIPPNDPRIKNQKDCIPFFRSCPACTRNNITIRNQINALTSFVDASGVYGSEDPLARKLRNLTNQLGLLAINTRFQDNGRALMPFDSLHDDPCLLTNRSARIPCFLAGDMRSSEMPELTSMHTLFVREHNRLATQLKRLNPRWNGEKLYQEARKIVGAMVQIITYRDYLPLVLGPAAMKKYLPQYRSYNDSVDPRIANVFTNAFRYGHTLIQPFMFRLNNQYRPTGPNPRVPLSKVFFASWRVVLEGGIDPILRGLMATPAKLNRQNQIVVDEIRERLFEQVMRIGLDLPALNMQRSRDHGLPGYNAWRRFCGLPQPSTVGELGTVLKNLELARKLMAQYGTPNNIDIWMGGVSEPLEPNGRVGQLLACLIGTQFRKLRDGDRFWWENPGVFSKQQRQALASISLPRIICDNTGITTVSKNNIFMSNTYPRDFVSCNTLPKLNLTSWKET
The experiment in a line: Brain abscess (salmonella), ex vivo FRI of coronal brain slices. Particulars: probe at 23 hours. Type of data set: in vivo. Here is the method: (§2) Female C57Bl/6J mice were then anesthetized and fixed in a stereotactic head frame (David Kopf Instruments, Tujunga, Calif.). 1-3×10^6 colony forming units (CFU) salmonella bacteria (ATCC #14028) were suspended in 2 μL PBS and slowly injected into the deep frontal white matter (2.0 mm lateral and 1.2 mm anterior to bregma) at a depth of 3.0 mm. 23 hours later, mice were injected intravenously with 2 nmol Compound 3 as above, followed by intravenous injection of SA-647. Mice were then anesthetized with Isoflurane and transcardially perfused with 20 mL of ice cold PBS. Brains were harvested and cut into 1 mm coronal slices using a brain slicer (Harvard Apparatus, Holliston, Mass.) and immediately underwent FRI as described above. Brains from mice injected with salmonella were also embedded in OCT (Sakura, Torrance, Calif.) and snap-frozen in chilled isopentane (Sigma) and stored at […] until sectioning. Serial 6 μm sections were cut on a cryostat (Thermo scientific). Sections were thawed at room temperature for 10-20 minutes and rehydrated in PBS for 10 minutes. Then sections were incubated in blocking buffer (1% horse serum in PBS) for 30 minutes at room temperature, and incubated with MPO specific probe diluted in incubation buffer (1% bovine serum albumin 1% normal donkey serum, 0.3% Triton X-100, and 0.01% sodium azide in PBS) overnight at 4° C. […]

For data set [4], the target named is T3, MPO activity. The experiment in a line: Staining of fresh-frozen ex vivo brain sections with Compound 3 and SA-647. To be noted: Compound 3 followed by SA-647. As for the experimental part:
as §2

Data set [5] has as its target T3, MPO activity. The experiment in a line: Bacterial cellulitis (Streptococcus pneumoniae), in vivo FRI of neutrophil extracellular traps. Here is the method: Female C57Bl/6J mice were injected subcutaneously at the dorsal aspect of the thigh with 10^8 CFU of Streptococcus pneumonia (SPn, ATCC #6303) to induce bacterial cellulitis. 6 hours after induction, mice were injected intravenously with 2 nmol of […]. 1 hour later, 2.5 μg Strepavidin-AlexaFluor-647 were injected intravenously to bind to the biotinylated Compound 3. To distinguish neutrophil granule release (where MPO and other granule proteins are secreted into the phagosome or extracellular space) from NET formation (where chromatin strands with MPO are released by neutrophils), 1 μg of the membrane-impermeable DNA dye Sytox Green (Invitrogen) was injected intravenously at the same time. Mice then underwent in vivo imaging using a dedicated FRI system as described above in Example 11. AlexaFluor-647 bound to MPO-sensor was detected at 595-635 nm excitation and 675/50 nm emission. Sytox Green was detected at 460-490 nm excitation and 530/40 nm emission.

For data set [6], the target named is T4, MPO (Mus musculus, UniProt P11247).
T4 sequence (P11247 139-718): T3 sequence (P11247 139-718)
The experiment in a line: CNR of Compound 3 in dermatitis, CNS abscess and cellulitis models. Type of data set: in vivo. Details: from tissue. To be noted: detection of dermatitis.

Data set [7] in a line: Solubility of the hydrochloric acid salt. Particulars: hydrochloric acid salt after Boc de-protection with 1M HCl. Type of data set: physicochemical.
For data set [8], the target named is T2, MPO. To be noted: in vitro; cited from earlier work.
For data set [9], the target named is T2, MPO. The arrangement: host or cells: transgenic mice overexpressing human MPO. Particulars: in vivo, transgenic mice with overexpression of human MPO; cited from earlier work.
Data set [10] addresses T2, MPO. The experiment in a line: In vitro color change (oligomerization) with MPO. Type of data set: biochemical. Particulars: 2 mM, 37° C., 1 hr. Here is the method: (§3) Each vial contains 2 mM of ^19F compound 9 in PBS (150 uL, 5% DMSO) and the following agents, and was incubated at 37° C. for 1 hr: • Vial 1: control (2 mM 19F […] only) • Vial 2: Glucose (6 μL, 1M), GOX (4 μL, 1 mg/mL); • Vial 3: H2O2 (2 μL), HRP (horseradish peroxidase, 1 μL); • Vial 4: H2O2(2 μL), MPO (10 μL): • Vial 5: H2O2 (2 μL), MPO (10 μL);

In data set [11] the test system is HRP (horseradish peroxidase). The experiment in a line: In vitro color change (oligomerization) with horseradish peroxidase. To be noted: Vial 3: H2O2, HRP; 2 mM, 37° C., 1 hr. Type of data set: biochemical. Here is the method:
as §3

Counter-ions that a name gives are not always drawn. Like-named read-outs stand apart in the source and are kept apart here.

With `O=C(CCCC[C@@H]1SC[C@@H]2NC(=O)N[C@@H]21)N[C@@H](Cc1c[nH]c2ccc(O)cc12)C(=O)NCCc1c[nH]c2ccc(O)cc12` [Compound 3, N—((S)-3-(5-hydroxy-1H-indol-3-yl)-1-((2-(5-hydroxy-1H-indol-3-yl)ethyl)amino)-1-oxopropan-2-yl)-5-((3aS,4S,6aR)-2-oxohexahydro-1H-thieno[3,4-d]imidazol-4-yl)pentanamide], on purified human MPO, the “FMT fluorescence signal versus MPO concentration” value was “linear increase in signal”. In addition, on MPO [1], the “FRI fluorescence signal in absence of both MPO and GOX” value was “no appreciable fluorescence”; the “FRI fluorescence signal with MPO and GOX in matrigel” value is “increased fluorescent signal”; the “FRI fluorescence signal with MPO but without GOX” value was “no fluorescence was detectible”. In addition, in the data set on MPO activity [2] (MPO-KO mice), the “Fluorescence intensity, PMA-treated hind-paw” value is 36.9±9.8 RFU and the “Fluorescence intensity, vehicle-treated hind-paw” value worked out at 43.9±10.8 RFU. Moreover, in the data set with MPO activity [2] (wildtype mice), the “Fluorescence intensity, PMA-treated hind-paw” value was 130.5±4.7 RFU and the “Fluorescence intensity, vehicle-treated hind-paw” value is 34.4±8.6 RFU. In addition, on MPO activity [3], the “Fluorescence intensity, contralateral hemisphere (mean value)” value was found to be 10972 RFU and the “Fluorescence intensity, ipsilateral hemisphere (mean value)” value amounted to 43242 RFU. Besides, the “Fluorescent signal on abscess and control sections” value on MPO activity [4] is on record as “increased fluorescent signal consistent with MPO activity in the ipsilateral hemisphere but not the contralateral hemisphere”. Moreover, the “Fluorescence signal, side injected with PBS” value on MPO activity [5] (contralateral thigh) is on record as 49.4±15.5 RFUs. Also, at MPO activity [5] (thigh, 6 hours after induction), the “Fluorescence signal, side injected with SPn” value was 212.5±22.9 RFU. For the same molecule, on MPO [6], the CNR entry was “approximately 4”.
In the case of `CN(C)CCCC[C@H](NC(=O)[C@H](Cc1c[nH]c2ccc(O)cc12)NC(=O)Cc1c[nH]c2ccc(O)cc12)C(=O)NCCOCCOCC[18F]` [Example 18, (S)-6-(dimethylamino)-N-(2-(2-(2-fluoro-^18F)ethoxy)ethoxy)ethyl)-2-((S)-3-(5-hydroxy-1H-indol-3-yl)-2-(2-(5-hydroxy-1H-indol-3-yl)acetamido)propanamido)hexanamide hydrochloric acid salt], the Solubility entry in [7] is listed as “increased solubility”.
As to “sulfonaphthoaminophenyl fluorescein [SNAPF]”, the CNR result was “around 1.4” on MPO [8] and roughly 1.6 on MPO [9].
In the case of `O=C(Cc1c[nH]c2ccc(O)cc12)N[C@@H](Cc1c[nH]c2ccc(O)cc12)C(=O)NCCOCCOCCF` [Compound 8, (S)—N-(2-(2-(2-fluoroethoxy)ethoxy)ethyl)-3-(5-hydroxy-1H-indol-3-yl)-2-(2-(5-hydroxy-1H-indol-3-yl)acetamido)propanamide], the Color change entry at MPO [10] (Vial 2: Glucose, GOX, no MPO) is “no color change”; at MPO [10] (Vials 4 and 5: H2O2, MPO) it was “turned to yellow or brown”; in data set [11], “turned to yellow or brown”.
